For orientation: IC50 means the concentration that gives 50% inhibition.

The values that follow come from PMC9229798, “Antioxidant Activity and Cytotoxicity of Aromatic Oligosulfides” (Molecules, 2022).

The conditions of assay [1]: Fe2+ chelating activity; read-out: FIC, IC50 (EDTA activity); cited from earlier work.
For assay [2], the system named is SW-480. In words: MTT assay. The assay is classed as cell-based, human. On the procedure:
(§1) The antiproliferative activity of aromatic oligosulfides 1–6 was determined against human cell lines, including colon carcinoma HCT-116, breast adenocarcinoma MCF-7, lung adenocarcinoma A-549, colorectal carcinoma SW-480, and non-tumourigenic WI-38, using the MTT assay (Table 4). […] However, some selectivity for cancer cells was evident and the IC50 values for non-tumourigenic cells were slightly higher for compounds 1 and 2.
(§2) Cell survival was determined by the MTT [3-(4,5-[…])-2,5-diphenyl tetrazolium bromide] assay by Niks method with small modifications. HCT-116 (colon carcinoma), MCF-7 (breast adenocarcinoma), A-549 (lung adenocarcinoma) and SW-480 (colorectal carcinoma) human cancer cell lines and WI-38 (cell line composed of fibroblasts) were cultured in DMEM (PanEco, Moscow, Russia) with Glutamin (PanEco, Moscow, Russia) and antibiotics (PanEco, Moscow, Russia) in CO2 (5%) at 37 °C. The compounds were dissolved (20 mM) in DMSO and then added to the cell culture medium at the required concentration with a maximum DMSO content of 0.5 v/v%. At these concentrations, DMSO had no effect on cell viability, as was shown in the control experiments. Cells were cultured in 96-well plates (7000 cells/well) and treated with various concentrations (from […]) of the test compounds as well as doxorubicin at 37 °C for 72 h. Cell viability was determined using the MTT assay, which quantified dehydrogenase activity. Then, the cells were incubated at 37 °C for 50 min with a solution of MTT ([…], 5 mg × mL^−1) (Sigma-Aldrich, St. Louis, MO, USA). The supernatant was discarded, and cells were dissolved in DMSO ([…]). The optical density of the solution was measured at 570 nm with use of a multiwall-plate reader (Anthos Zenyth 2000rt, Biochrom, Cambridge, UK), and the percentage of surviving cells was calculated from the absorbance of untreated cells. Each experiment was repeated at least three times, and each concentration was tested in at least three replicates. Data were presented as a graph of the percentage of surviving cells versus the concentration of the test substances. The meanings of 50% inhibition concentration (IC50) with standard deviation were calculated using GraphPad Prism Version 5.03 for Windows (GraphPad Software, San Diego, CA, USA).
Background: Tetrazolium assays rely on reduction of a dye to a coloured formazan, in cell work by metabolically active cells.

Assay [3] has as its system A-549. In words: MTT assay. The assay is classed as cell-based, human. On the procedure: as §1, §2
Assay [4] relates to MCF-7. In words: MTT assay. The assay is classed as cell-based, human. On the procedure:
as §1, §2

Assay [5] deals with HCT-116. In words: MTT assay. In kind it is cell-based, human. On the procedure:
as §1, §2

For assay [6], the system named is HCT-116. Nature of the assay: Annexin V/Dead Cell assay. The assay is classed as cell-based, human. The note with it: HCT-116, 2 × IC50, 24 h. An excerpt:
Apoptosis or programmed cell death is an important and active regulatory pathway of cell growth and proliferation. Cells respond to specific induction signals by initiating intracellular processes that result in characteristic physiological changes. Among these are externalization of phosphatidylserine (PS) to the cell surface, cleavage and degradation of specific cellular proteins, compaction and fragmentation of nuclear chromatin, and loss of membrane integrity. Phosphatidylserine (PS) is normally located in the inner part of the cell membrane. In the initial stage of apoptosis, the PS residues which translocated to the extracellular are detected by Annexin V, which is a calcium-dependent phospholipid-binding protein with a high affinity for PS. Annexin V flow cytometric assay was used to evaluate the compounds’ ability to induce apoptosis and influence on cell death. HCT-116 colon carcinoma and A-549 lung adenocarcinoma cells were treated by disulfides 2 and 3.
HCT-116 (colon carcinoma) and A-549 (lung carcinoma) cells (1 × 10^6) were seeded in a six-well plate and were incubated for 24 h. […] After incubation, the cells were harvested by trypsinization, precipitated by centrifugation (3000 rpm), washed with PBS, recentrifuged, and the buffer was removed. DMEM was added to achieve a cell concentration of 400–1000 cells/µL. The Muse Annexin V & Dead Cell Kit reagent (100 µL) was added to the cells and […] for 20 min at room temperature in the dark. The results were recorded on a Muse Cell Analyzer flow cytometer (Merck, Rahway, NJ, USA).

As to `O=C([O-])CN(CCN(CC(=O)[O-])CC(=O)O)CC(=O)O.[Na+].[Na+]` [EDTA, reference compound], the IC50 in assay [1] was 380 ± 30 µM.

On to `N.N.[Cl][Pt][Cl]` [cisplatin, reference compound], for which the IC50 is 17.6 ± 5.4 µM in assay [2] (72 h), 20.1 ± 5.6 µM in assay [3] (72 h), above 30 µM in assay [4] (72 h) and 9.1 ± 2.3 µM in assay [5] (72 h).

In assay [6], `COc1cccc2c1C(=O)c1c(O)c3c(c(O)c1C2=O)C[C@@](O)(C(=O)CO)C[C@@H]3O[C@H]1C[C@H](N)[C@H](O)[C@H](C)O1` [doxorubicine, doxorubicin, reference compound] yielded a total apoptotic cells of 17.9%. Also, the IC50 was 0.45 ± 0.06 µM in assay [2] (Homo sapiens, SW480, 72 h); 0.24 ± 0.02 µM in assay [3] (Homo sapiens, A549, 72 h); 0.28 ± 0.03 µM in assay [4] (Homo sapiens, MCF7, 72 h); 0.65 ± 0.05 µM in assay [5] (Homo sapiens, HCT-116, 72 h).
